Reference: publication PMC10282093, “Structural basis of α1A-adrenergic receptor activation and recognition by an extracellular nanobody” (Nature Communications, 2023)
“And” between values parts separate entries of the source, which are not always exact repeats. Equal entries are not always repeated.

Experiments:
α1AAR [1] = target: T1, α1AAR (Homo sapiens, UniProt P35348); experiment: [3H]prazosin radioligand binding, Sf9 membranes
T1 sequence (P35348 1-370): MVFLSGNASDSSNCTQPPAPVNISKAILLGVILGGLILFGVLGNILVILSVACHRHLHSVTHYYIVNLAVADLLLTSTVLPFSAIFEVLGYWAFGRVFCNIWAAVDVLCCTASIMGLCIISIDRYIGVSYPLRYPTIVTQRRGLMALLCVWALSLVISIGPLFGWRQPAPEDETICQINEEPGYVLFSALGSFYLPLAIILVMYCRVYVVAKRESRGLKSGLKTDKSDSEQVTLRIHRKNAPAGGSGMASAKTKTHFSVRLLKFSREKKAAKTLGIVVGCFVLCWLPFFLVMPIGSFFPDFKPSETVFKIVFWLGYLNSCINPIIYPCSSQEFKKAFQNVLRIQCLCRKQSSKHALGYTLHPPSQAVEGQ
Experimental: (§1) After centrifugation, the pellet was homogenized in binding buffer and used as the membrane fraction in binding assays. […] Receptors were incubated for 1 h at room temperature with various concentrations of ligand in a total volume of 100 µl. After the reaction, the mixture was trapped on Whatman GF/B glass filters. Bound and free radioligands were separated by washing with ice-cold binding buffer. Radioactivity was measured on a MicroBeta2 liquid scintillation counter (PerkinElmer).

α1DAR = target: T2, α1DAR (Homo sapiens, UniProt P25100); experiment: [3H]prazosin radioligand competition binding, Sf9 membranes; conditions: 1 h
T2 construct: made in house; host or cells: Sf9 insect cells (membranes)
T2 sequence (P25100 1-572): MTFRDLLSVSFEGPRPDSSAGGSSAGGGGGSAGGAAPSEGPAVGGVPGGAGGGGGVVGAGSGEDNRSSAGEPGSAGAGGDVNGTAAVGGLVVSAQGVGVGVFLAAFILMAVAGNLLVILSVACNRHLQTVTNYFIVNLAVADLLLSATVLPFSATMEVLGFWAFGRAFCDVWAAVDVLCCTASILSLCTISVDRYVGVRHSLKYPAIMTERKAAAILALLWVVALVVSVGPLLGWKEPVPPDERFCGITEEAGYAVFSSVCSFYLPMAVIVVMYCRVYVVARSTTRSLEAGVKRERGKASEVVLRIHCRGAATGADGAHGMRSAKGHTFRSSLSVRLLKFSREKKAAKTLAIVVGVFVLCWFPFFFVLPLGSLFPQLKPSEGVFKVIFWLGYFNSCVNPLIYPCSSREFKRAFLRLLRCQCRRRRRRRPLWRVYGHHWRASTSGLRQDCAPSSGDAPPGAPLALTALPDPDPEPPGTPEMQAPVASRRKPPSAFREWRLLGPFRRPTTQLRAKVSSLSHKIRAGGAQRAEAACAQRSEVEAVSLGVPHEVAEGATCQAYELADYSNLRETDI
Experimental: as §1

HEK293T cells (mock) = experiment: Glo-sensor cAMP assay, mock (negative control); format: cell-based
Experimental: In brief, […] plasmid, receptor plasmid, and Gsq plasmid were transfected into HEK293T cells. At 24 h after transfection, the cells were switched into a CO2-Independent Medium (Gibco) and incubated with GloSensor^TM cAMP reagent. The mixture was then transferred to a 96-well white plate. The 96-well plate is placed at 37 °C in the dark for 1 h, then placed at room temperature in the dark for 1 h before use. […] The result curves were calculated and fitted by GraphPad Prism 9.

α1AAR [2] = target: T3, α1AAR (Homo sapiens, UniProt P35348); experiment: Glo-sensor cAMP signaling assay with engineered Gsq protein in HEK293T cells; conditions: HEK-293T
T3 sequence (P35348 1-466): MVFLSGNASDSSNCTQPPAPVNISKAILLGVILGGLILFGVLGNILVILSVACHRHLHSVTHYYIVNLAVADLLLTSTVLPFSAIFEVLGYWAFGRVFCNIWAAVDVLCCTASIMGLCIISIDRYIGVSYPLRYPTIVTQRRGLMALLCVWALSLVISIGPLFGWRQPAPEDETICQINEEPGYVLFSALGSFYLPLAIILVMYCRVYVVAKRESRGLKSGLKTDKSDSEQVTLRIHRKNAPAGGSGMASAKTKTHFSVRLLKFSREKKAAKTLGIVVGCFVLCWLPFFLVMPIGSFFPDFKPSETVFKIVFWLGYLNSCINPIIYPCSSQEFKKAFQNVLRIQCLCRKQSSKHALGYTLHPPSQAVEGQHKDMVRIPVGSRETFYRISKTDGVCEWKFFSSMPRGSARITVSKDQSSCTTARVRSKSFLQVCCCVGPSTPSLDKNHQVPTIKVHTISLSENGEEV
Experimental: In brief, pGloSensor™−22F plasmid, receptor plasmid, and Gsq plasmid were transfected into HEK293T cells. At 24 h after transfection, the cells were switched into a CO2-Independent Medium (Gibco) and incubated with GloSensor^TM cAMP reagent. The mixture was then transferred to a 96-well white plate. The 96-well plate is placed at 37 °C in the dark for 1 h, then placed at room temperature in the dark for 1 h before use. […] The result curves were calculated and fitted by GraphPad Prism 9.

α1ARs over α2ARs = conditions: cited from earlier work

## Cc1cc(C(C)(C)C)c(O)c(C)c1CC1=NCCN1 [Oxymetazoline, oxymetazoline]
α1AAR [1]; Fig 1c, oxymetazoline Log[M] -4
  [3H]prazosin binding: 10.9281% and 8.737% and 2.765%
α1AAR [1]; Fig 1c, oxymetazoline Log[M] -5
  [3H]prazosin binding: 28.5329% and 15.8053% and 21.6214%
α1AAR [1]; Fig 1c, oxymetazoline Log[M] -6
  [3H]prazosin binding: 48.3547% and 40.7911% and 47.5462%
α1AAR [1]; Fig 1c, oxymetazoline Log[M] -7
  [3H]prazosin binding: 71.541% and 85.4423% and 88.1547%
α1AAR [1]; Fig 1c, oxymetazoline Log[M] -8
  [3H]prazosin binding: 80.5129% and 95.3793% and 78.3743%
α1AAR [1]; Fig 1c, oxymetazoline Log[M] -9
  [3H]prazosin binding: 85.0772% and 90.4238% and 92.4582%
α1AAR [1]; Fig 1c, oxymetazoline Log[M] -10
  [3H]prazosin binding: 89.85% and 99.1089% and 88.2591%
α1AAR [1]; SupFig 3a, oxymetazoline Log[M] -4
  [3H]prazosin binding: 12.1047% and 12.5905% and 4.0484%
α1AAR [1]; SupFig 3a, oxymetazoline Log[M] -5
  [3H]prazosin binding: 17.0033% and 16.477% and 26.9623%
α1AAR [1]; SupFig 3a, oxymetazoline Log[M] -6
  [3H]prazosin binding: 53.0745% and 43.3179% and 35.5045%
α1AAR [1]; SupFig 3a, oxymetazoline Log[M] -7
  [3H]prazosin binding: 77.4054% and 89.6316% and 82.5874%
α1AAR [1]; SupFig 3a, oxymetazoline Log[M] -8
  [3H]prazosin binding: 97.364% and 96.109% and 85.3403%
α1AAR [1]; SupFig 3a, oxymetazoline Log[M] -9
  [3H]prazosin binding: 100.805% and 102.506% and 100.765%
α1AAR [1]; SupFig 3a, oxymetazoline Log[M] -10
  [3H]prazosin binding: 92.5464% and 102.06% and 94.2468%
α1AAR [1]; SupFig 3a, oxymetazoline Log[M] -11
  [3H]prazosin binding: 99.0644% and 106.675% and 101.331%
α1AAR [1]; SupFig 5b, Oxy Log[M] -4, listed as Oxy
  [3H]prazosin binding: 3.711% and 5.398% and 5.024%
α1AAR [1]; SupFig 5b, Oxy Log[M] -5, listed as Oxy
  [3H]prazosin binding: 10.3036% and 9.182% and 6.784%
α1AAR [1]; SupFig 5b, Oxy Log[M] -6, listed as Oxy
  [3H]prazosin binding: 25.9506% and 41.5063% and 33.8379%
α1AAR [1]; SupFig 5b, Oxy Log[M] -7, listed as Oxy
  [3H]prazosin binding: 92.3589% and 77.9429% and 95.5776%
α1AAR [1]; SupFig 5b, Oxy Log[M] -8, listed as Oxy
  [3H]prazosin binding: 101.851% and 78.107% and 77.5873%
α1AAR [1]; SupFig 5b, Oxy Log[M] -9, listed as Oxy
  [3H]prazosin binding: 102.225% and 74.633% and 114.735%
α1AAR [1]; SupFig 5b, Oxy Log[M] -10, listed as Oxy
  [3H]prazosin binding: 96.3983% and 104.267% and 110.313%
α1AAR [1]; SupFig 5b, Oxy Log[M] -11, listed as Oxy
  [3H]prazosin binding: 110.176% and 107.431% and 115.738%
α1AAR [1]; oxymetazoline Log[M] -4, + 5 μM Nb29
  [3H]prazosin binding: 2.395% and 8.488% and 7.551%
α1AAR [1]; oxymetazoline Log[M] -5, + 5 μM Nb29
  [3H]prazosin binding: 13.6695% and 16.4815% and 14.4506%
α1AAR [1]; oxymetazoline Log[M] -6, + 5 μM Nb29
  [3H]prazosin binding: 33.0932% and 34.9679% and 29.0314%
α1AAR [1]; oxymetazoline Log[M] -7, + 5 μM Nb29
  [3H]prazosin binding: 67.0717% and 63.0359% and 61.005%
α1AAR [1]; oxymetazoline Log[M] -8, + 5 μM Nb29
  [3H]prazosin binding: 88.2659% and 86.6777% and 81.6265%
α1AAR [1]; oxymetazoline Log[M] -9, + 5 μM Nb29
  [3H]prazosin binding: 85.0373% and 101.154% and 98.9412%
α1AAR [1]; oxymetazoline Log[M] -10, + 5 μM Nb29
  [3H]prazosin binding: 98.863% and 104.175% and 100.087%
α1DAR; oxymetazoline Log[M] -4
  remaining binding at 100 µM: 40%
α1DAR; oxymetazoline Log[M] -5
  remaining binding at 10 µM: 78%
α1DAR; oxymetazoline Log[M] -6
  remaining binding at 1 µM: 104%
α1DAR; oxymetazoline Log[M] -8
  remaining binding at 0.01 µM: 101%
α1DAR; oxymetazoline Log[M] -9
  remaining binding at 0.001 µM: 85.5%
α1DAR; oxymetazoline Log[M] -10
  remaining binding at 0.0001 µM: 96.6%
HEK293T cells (mock); Oxy Log[M] -4, listed as Oxy
  cAMP Glo-sensor signal (Noradrenaline %): 20.5576% and 21.072% and 20.3482%
HEK293T cells (mock); Oxy Log[M] -5, listed as Oxy
  cAMP Glo-sensor signal (Noradrenaline %): 16.9742% and 18.9752% and 17.0682%
HEK293T cells (mock); Oxy Log[M] -6, listed as Oxy
  cAMP Glo-sensor signal (Noradrenaline %): 11.7764% and 12.3973% and 9.944%
HEK293T cells (mock); Oxy Log[M] -7, listed as Oxy
  cAMP Glo-sensor signal (Noradrenaline %): 5.984% and 4.961% and 5.326%
HEK293T cells (mock); Oxy Log[M] -8, listed as Oxy
  cAMP Glo-sensor signal (Noradrenaline %): 5.537% and 5.0478% and 4.209%
HEK293T cells (mock); Oxy Log[M] -9, listed as Oxy
  cAMP Glo-sensor signal (Noradrenaline %): 5.27% and 4.932% and 5.142%
HEK293T cells (mock); Oxy Log[M] -10, listed as Oxy
  cAMP Glo-sensor signal (Noradrenaline %): 5.3547% and 4.562% and 4.147%
HEK293T cells (mock); Oxy Log[M] -11, listed as Oxy
  cAMP Glo-sensor signal (Noradrenaline %): 5.371% and 4.924% and 4.109%
α1AAR [2]; read-out: α1AAR activation (Noradrenaline %), Oxy Log[M] -4
  activation at 100 µM: 79.5%
α1AAR [2]; read-out: α1AAR activation (Noradrenaline %), Oxy Log[M] -5
  activation at 10 µM: 82.8%
α1AAR [2]; read-out: α1AAR activation (Noradrenaline %), Oxy Log[M] -6
  activation at 1 µM: 89.5%
α1AAR [2]; read-out: α1AAR activation (Noradrenaline %), Oxy Log[M] -7
  activation at 0.1 µM: 76.5%
α1AAR [2]; read-out: α1AAR activation (Noradrenaline %), Oxy Log[M] -8
  activation at 0.01 µM: 64.3%
α1AAR [2]; read-out: α1AAR activation (Noradrenaline %), Oxy Log[M] -9
  activation at 0.001 µM: 30.7%

## (+)-cyclazosin
α1ARs over α2ARs
  selectivity for α1ARs over α2ARs: 100–1000 fold
  subtype preference among α1ARs: slight preference for α1BAR over α1AAR
